The text below walks through data of patent US10323022B2, “Pyrrolidinyl urea, pyrrolidinyl thiourea and pyrrolidinyl guanidine compounds as TrkA kinase inhibitors” (Array BioPharma Inc., priority 2011, dated 2019).

The structures appear in SMILES notation.

In the experiment the target is TrkA (Homo sapiens (Human), UniProt P04629). Nature of the experiment: TrkA Omnia Assay. It counts as biochemical. The conditions noted are these: averaged IC50; 20 nM enzyme, 500 μM ATP, 10 μM peptide substrate. In outline: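 Recombinant TrkA (20 nM) preincubated 10 min at ambient temperature with compound, then Omnia Tyr Peptide #4 (10 μM) and ATP (500 μM) added in 25 mM MOPS pH 7.5, 5 mM MgCl2, 0.005% Triton X-100. Fluorescence (ex 360/em 485 nm) followed continuously for 70 min; IC50 from initial rates by 4- or 5-parameter logistic fit.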
Sequence of TrkA (P04629 33-796): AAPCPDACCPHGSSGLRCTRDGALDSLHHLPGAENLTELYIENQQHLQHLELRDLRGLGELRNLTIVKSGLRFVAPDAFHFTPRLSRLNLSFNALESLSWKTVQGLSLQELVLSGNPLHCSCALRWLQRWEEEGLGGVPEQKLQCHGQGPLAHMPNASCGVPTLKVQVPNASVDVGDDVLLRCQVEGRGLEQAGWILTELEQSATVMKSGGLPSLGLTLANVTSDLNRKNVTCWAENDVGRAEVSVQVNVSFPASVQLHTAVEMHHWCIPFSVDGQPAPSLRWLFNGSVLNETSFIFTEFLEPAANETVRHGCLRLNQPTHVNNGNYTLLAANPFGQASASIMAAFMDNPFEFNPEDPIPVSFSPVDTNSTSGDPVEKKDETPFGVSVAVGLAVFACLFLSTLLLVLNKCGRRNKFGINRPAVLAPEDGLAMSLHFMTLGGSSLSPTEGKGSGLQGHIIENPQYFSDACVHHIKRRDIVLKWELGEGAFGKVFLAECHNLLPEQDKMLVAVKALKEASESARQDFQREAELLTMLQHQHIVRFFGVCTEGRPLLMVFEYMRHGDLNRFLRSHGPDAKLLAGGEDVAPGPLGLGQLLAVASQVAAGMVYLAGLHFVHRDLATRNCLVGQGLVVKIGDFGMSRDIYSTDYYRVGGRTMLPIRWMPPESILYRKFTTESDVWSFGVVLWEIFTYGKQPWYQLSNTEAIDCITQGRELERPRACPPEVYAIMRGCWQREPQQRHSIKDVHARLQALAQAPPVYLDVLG
One may read the IC50 as the concentration needed to halve the response being measured. A high value points to weaker potency. Turning to `COCCN1C[C@@H](NC(=O)Nc2c(C)c(-c3cncc(F)c3)nn2-c2ccccc2)[C@H](c2ccc(F)c(F)c2)C1` [Example 489, 1-((3S,4R)-4-(3,4-difluorophenyl)-1-(2-methoxyethyl)pyrrolidin-3-yl)-3-(3-(5-fluoropyridin-3-yl)-4-methyl-1-phenyl-1H-pyrazol-5-yl)urea], the IC50 was < 100 nM.

Turning to `COCCN1C[C@@H](NC(=O)Nc2c(C)c(-c3cncc(F)c3)nn2-c2cccnc2)[C@H](c2ccc(F)c(F)c2)C1` [Example 490, 1-((3S,4R)-4-(3,4-difluorophenyl)-1-(2-methoxyethyl)pyrrolidin-3-yl)-3-(3-(5-fluoropyridin-3-yl)-4-methyl-1-(pyridin-3-yl)-1H-pyrazol-5-yl)urea], the half-maximal inhibitory concentration (IC50) is < 100 nM.

As for `COCCN1C[C@@H](NC(=O)Nc2c(C)c(-c3ccn(C)n3)nn2-c2ccccc2)[C@H](c2ccc(F)c(F)c2)C1` [Example 491, 1-((3S,4R)-4-(3,4-difluorophenyl)-1-(2-methoxyethyl)pyrrolidin-3-yl)-3-(1′,4-dimethyl-1-phenyl-1H,1′H-[3,3′-bipyrazol]-5-yl)urea], the concentration for half-maximal inhibition (IC50) was < 100 nM.

With `COCCN1C[C@@H](NC(=O)Nc2c(C)c(-c3ccn(C)n3)nn2-c2ccccc2)[C@H](c2ccc(F)cc2)C1` [Example 492, 1-(1′,4-dimethyl-1-phenyl-1H, 1′H-[3,3′-bipyrazol]-5-yl)-3-((3S,4R)-4-(4-fluorophenyl)-1-(2-methoxyethyl)pyrrolidin-3-yl)urea], the IC50 was < 100 nM.

Take `COCCN1C[C@@H](NC(=O)Nc2c(C)c(-c3ccn(C)n3)nn2-c2ccccc2)[C@H](c2cc(F)cc(F)c2)C1` [Example 493, 1-((3S,4R)-4-(3,5-difluorophenyvl)-1-(2-methoxyethyl)pyrrolidin-3-yl)-3-(1′,4-dimethyl-1-phenyl-1H,1′H-[3,3′-bipyrazol]-5-yl)urea]: the concentration for half-maximal inhibition (IC50) was < 100 nM.

Consider `COCCN1C[C@@H](NC(=O)Nc2c(C)c(-c3ccnn3C)nn2-c2ccccc2)[C@H](c2ccc(F)c(F)c2)C1` [Example 494, 1-((3S,4R)-4-(3,4-difluorophenyl)-1-(2-methoxyethyl)pyrrolidin-3-yl)-3-(2′,4-dimethyl-1-phenyl-1H,2′H-[3,3′-bipyrazol]-5-yl)urea], for which the IC50 is < 100 nM.

Consider `COCCN1C[C@@H](NC(=O)Nc2c(C)c(-c3cnn(C)c3)nn2-c2cncc(F)c2)[C@H](c2ccc(F)c(F)c2)C1` [Example 495, 1-((3S,4R)-4-(3,4-difluorophenyl)-1-(2-methoxyethyl)pyrrolidin-3-yl)-3-(1-(5-fluoropyridin-3-yl)-1′,4-dimethyl-1H, 1′H-[3,4′-bipyrazol]-5-yl)urea], for which the IC50 is < 100 nM.

Compound `COCCN1C[C@@H](NC(=O)Nc2c(C)c(-c3cnn(C)c3)nn2-c2cncc(C)c2)[C@H](c2ccc(F)c(F)c2)C1` [Example 496, 1-((3S,4R)-4-(3,4-difluorophenyvl)-1-(2-methoxyethyl)pyrrolidin-3-yl)-3-(1′,4-dimethyl-1-(5-methylpyridin-3-yl)-1H, 1′H-[3,4′-bipyrazol]-5-yl)urea] gave an IC50 of 100 to 1000 nM.

In the case of `COCCN1C[C@@H](NC(=O)Nc2c(C)c(-c3cnn(C)c3)nn2-c2cncc(Cl)c2)[C@H](c2ccc(F)c(F)c2)C1` [Example 497, 1-(1-(5-chloropyridin-3-yl)-1′,4-dimethyl-1H, 1′H-[3,4′-bipyrazol]-5-yl)-3-((3 S,4R)-4-(3,4-difluorophenyl)-1-(2-methoxyethyl)pyrrolidin-3-yl)urea], the IC50 was 100 to 1000 nM.

`COCCN1C[C@@H](NC(=O)Nc2c(C)c(-c3cnn(C(OCC(F)(F)F)C(F)(F)F)c3)nn2-c2ccccc2)[C@H](c2ccc(F)c(F)c2)C1` (stereo partly drawn) [Example 498, 1-((3S,4R)-4-(3,4-difluorophenyvl)-1-(2-methoxyethyl)pyrrolidin-3-yl)-3-(4-methyl-1-phenyl-1′-(2,2,2-trifluoro-1-(2,2,2-trifluoroethoxy)ethyl)-1H,1′H-[3,4′-bipyrazol]-5-yl)urea]: the IC50 is < 100 nM.

With `COCCN1C[C@@H](NC(=O)Nc2c(C)c(-c3cnn(CC(F)(F)F)c3)nn2-c2ccccc2)[C@H](c2ccc(F)c(F)c2)C1` [Example 499, 1-((3S,4R)-4-(3,4-difluorophenyl)-1-(2-methoxyethyl)pyrrolidin-3-yl)-3-(4-methyl-1-phenyl-1′-(2,2,2-trifluoroethyl)-1H, 1′H-[3,4′-bipyrazol]-5-yl)urea], the IC50 is < 100 nM.

Take `COCCN1C[C@@H](NC(=O)Nc2c(C)c(-c3cnn(CC4CC4)c3)nn2-c2ccccc2)[C@H](c2ccc(F)c(F)c2)C1` [Example 500, 1-(1′-(cyclopropylmethyl)-4-methyl-l-phenyl-1H, 1′H-[3,4′-bipyrazol]-5-yl)-3-((3S,4R)-4-(3,4-difluorophenyl)-1-(2-methoxyethyl)pyrrolidin-3-yl)urea]: the IC50 was < 100 nM.

On to `COCCN1C[C@@H](NC(=O)Nc2c(C)c(-c3cnn(C(=O)C4CC4)c3)nn2-c2ccccc2)[C@H](c2ccc(F)c(F)c2)C1` [Example 501, 1-(1′-(cyclopropanecarbonyl)-4-methyl-1-phenyl-1H,1′H-[3,4′-bipyrazol]-5-yl)-3-((3S,4R)-4-(3,4-difluorophenyl)-1-(2-methoxyethyl)pyrrolidin-3-yl)urea], for which the concentration for half-maximal inhibition (IC50) was < 100 nM.

Regarding `COCCN1C[C@@H](NC(=O)Nc2c(C)c(-c3cnn(S(C)(=O)=O)c3)nn2-c2ccccc2)[C@H](c2ccc(F)c(F)c2)C1` [Example 502, 1-((3S,4R)-4-(3,4-difluorophenyl)-1-(2-methoxyethyl)pyrrolidin-3-yl)-3-(4-methyl-1′-(methylsulfonyl)-1-phenyl-1H, 1′H-[3,4′-bipyrazol]-5-yl)urea], the IC50 was < 100 nM.

On to `COCCN1C[C@@H](NC(=O)Nc2c(C)c(-c3cnn(C(C)C)c3)nn2-c2ccccc2)[C@H](c2ccc(F)c(F)c2)C1` [Example 503, 1-((3S,4R)-4-(3,4-difluorophenyvl)-1-(2-methoxyethyl)pyrrolidin-3-yl)-3-(1′-isopropyl-4-methyl-1-phenyl-1H, 1′H-[3,4′-bipyrazol]-5-yl)urea], for which the IC50 is < 100 nM.

For the compound `COCCN1C[C@@H](NC(=O)Nc2c(C)c(-c3cncnc3)nn2-c2ccccc2)[C@H](c2ccc(F)c(F)c2)C1` [Example 504, 1-((3S,4R)-4-(3,4-difluorophenyl)-1-(2-methoxyethyl)pyrrolidin-3-yl)-3-(4-methyl-1-phenyl-3-(pyrimidin-5-yl)-1H-pyrazol-5-yl)urea], the IC50 was < 100 nM.

For the compound `COCCN1C[C@@H](NC(=O)Nc2c(C)c(-c3ccn(C)c(=O)c3)nn2-c2ccccc2)[C@H](c2ccc(F)c(F)c2)C1` [Example 505, 1-((3S,4R)-4-(3,4-difluorophenyl)-1-(2-methoxyethyl)pyrrolidin-3-yl)-3-(4-methyl-3-(1-methyl-2-oxo-1,2-dihydropyridin-4-yl)-1-phenyl-1H-pyrazol-5-yl)urea], the IC50 is < 100 nM.

Turning to `COCCN1C[C@@H](NC(=O)Nc2c(C)c(-c3ccc(=O)n(C)c3)nn2-c2ccccc2)[C@H](c2ccc(F)c(F)c2)C1` [Example 506, 1-((3S,4R)-4-(3,4-difluorophenyl)-1-(2-methoxyethyl)pyrrolidin-3-yl)-3-(4-methyl-3-(1-methyl-6-oxo-1,6-dihydropyridin-3-yl)-1-phenyl-1H-pyrazol-5-yl)urea], the IC50 was < 100 nM.
